In PubChem BioAssay AID256 (DTP/NCI, 2004):
“And” between values parts separate entries of the source, which are not always exact repeats. Identical values can stand only once. Toxic doses and inconclusive results are not listed. Non-standard residues stand in square brackets, D forms with d. Residues, ends and D or L forms follow the SMILES beside them. ξ: configuration not given here. *: point of attachment. Hexanoyl = CCCCCC(=O)*; ξP = O=C(O)C1CCCN1; Ava = NCCCCC(=O)O

Tested on: CD2F1 mice, L1210 leukemia ip, survival T/C
Assay: NCI In Vivo Anticancer Drug Screen. Data for tumor model L1210 Leukemia (intraperitoneal) in CD2F1 (CDF1) mice
Conditions: higher = longer survival
Procedure, shortened: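 Compound-dosed mice with transplantable tumor versus matched vehicle controls; endpoint ratio T/C reported.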

[1] = endpoint: mean survival time, dose: 100.0 mg/kg/injection, schedule: Q04DX002 (ip), vehicle: saline
[2] = endpoint: mean survival time, dose: 100.0 mg/kg/injection, schedule: Q01DX001 (ip), vehicle: saline
[3] = endpoint: mean survival time, dose: 100.0 mg/kg/injection, schedule: Q04DX003 (ip), vehicle: Klucel (hydroxypropylcellulose) (HPC)
[4] = endpoint: mean survival time, dose: 200.0 mg/kg/injection, schedule: Q04DX003 (ip), vehicle: Klucel (hydroxypropylcellulose) (HPC)
[5] = endpoint: mean survival time, dose: 400.0 mg/kg/injection, schedule: Q04DX003 (ip), vehicle: Klucel (hydroxypropylcellulose) (HPC)
[6] = endpoint: mean survival time, dose: 100.0 mg/kg/injection, schedule: Q04DX003 (ip), vehicle: other
[7] = endpoint: mean survival time, dose: 200.0 mg/kg/injection, schedule: Q04DX003 (ip), vehicle: other
[8] = endpoint: mean survival time, dose: 400.0 mg/kg/injection, schedule: Q04DX003 (ip), vehicle: other
[9] = endpoint: mean survival time, dose: 100.0 mg/kg/injection, schedule: Q01DX009 (ip), vehicle: saline
[10] = endpoint: mean survival time, dose: 100.0 mg/kg/injection, schedule: Q04DX002 (ip), vehicle: saline with Tween-80
[11] = endpoint: mean survival time, dose: 200.0 mg/kg/injection, schedule: Q04DX002 (ip), vehicle: saline with Tween-80
[12] = endpoint: mean survival time, dose: 400.0 mg/kg/injection, schedule: Q04DX002 (ip), vehicle: saline with Tween-80
[13] = endpoint: mean survival time, dose: 100.0 mg/kg/injection, schedule: Q04DX003 (ip), vehicle: saline with Tween-80
[14] = endpoint: mean survival time, dose: 100.0 mg/kg/injection, schedule: Q04DX003 (ip), vehicle: saline
[15] = endpoint: mean survival time, dose: 50.0 mg/kg/injection, schedule: Q01DX009 (ip), vehicle: saline with Tween-80
[16] = endpoint: mean survival time, dose: 100.0 mg/kg/injection, schedule: Q01DX009 (ip), vehicle: saline with Tween-80
[17] = endpoint: mean survival time, dose: 200.0 mg/kg/injection, schedule: Q04DX003 (ip), vehicle: saline with Tween-80
[18] = endpoint: mean survival time, dose: 400.0 mg/kg/injection, schedule: Q04DX003 (ip), vehicle: saline with Tween-80
[19] = endpoint: mean survival time, dose: 200.0 mg/kg/injection, schedule: Q01DX009 (ip), vehicle: saline with Tween-80

Compound: CN(C)C(=O)C1C2C=CC(CCC2)C1C(=O)N(C)C (stereo not drawn)
- T/C [1]: 91 % of control
- T/C (endpoint: mean survival time, dose: 200.0 mg/kg/injection, schedule: Q04DX002 (ip), vehicle: saline): 88 % of control
- T/C (endpoint: mean survival time, dose: 400.0 mg/kg/injection, schedule: Q04DX002 (ip), vehicle: saline): 91 % of control

Compound: O=[N+]([O-])c1ccc(S(=O)(=O)O)cc1
- T/C [2]: 95 % of control
- T/C (endpoint: mean survival time, dose: 200.0 mg/kg/injection, schedule: Q01DX001 (ip), vehicle: saline): 105 % of control
- T/C (endpoint: mean survival time, dose: 400.0 mg/kg/injection, schedule: Q01DX001 (ip), vehicle: saline): 100 % of control

Compound: N#CCc1ccc2c(c1)Sc1ccccc1O2
- T/C [3]: 108 % of control
- T/C [4]: 98 % of control
- T/C [5]: 100 % of control

Compound: Nc1ccc(O)c2ccccc12
- T/C (endpoint: mean survival time, dose: 1.5 mg/kg/injection, schedule: Q04DX003 (ip), vehicle: other): 111 % of control
- T/C (endpoint: mean survival time, dose: 3.0 mg/kg/injection, schedule: Q04DX003 (ip), vehicle: other): 102 % of control

Compound: CC1(C)N=C(N)N=C(N)N1c1cccc(OCCCC#N)c1
- T/C (endpoint: mean survival time, dose: 25.0 mg/kg/injection, schedule: Q01DX001 (ip), vehicle: saline): 88 % of control
- T/C (endpoint: mean survival time, dose: 50.0 mg/kg/injection, schedule: Q01DX001 (ip), vehicle: saline): 106 % of control
- T/C [2]: 101 % of control

Compound: CC(C)(C)C(=O)OCC1OC(n2ccc(O)cc2=O)C(O)C1O (stereo not drawn)
- T/C (endpoint: median survival time, dose: 67.0 mg/kg/injection, schedule: Q01DX009 (ip), vehicle: saline + Tween-80 + alcohol): 168 % of control
- T/C (endpoint: median survival time, dose: 100.0 mg/kg/injection, schedule: Q01DX009 (ip), vehicle: saline + Tween-80 + alcohol): 163 % of control
- T/C (endpoint: median survival time, dose: 150.0 mg/kg/injection, schedule: Q01DX009 (ip), vehicle: saline + Tween-80 + alcohol): 150 % of control
- T/C (endpoint: median survival time, dose: 225.0 mg/kg/injection, schedule: Q01DX009 (ip), vehicle: saline + Tween-80 + alcohol): 154 % of control

Compound: COc1ccc(/C=C(/c2ccccc2)[Si](C)(C)C)cc1
- T/C [6]: 91 % of control
- T/C [7]: 96 % of control
- T/C [8]: 94 % of control

Compound: [Au].[NH-]CC[NH-].[NH-]CC[NH-]
- T/C (endpoint: mean survival time, dose: 6.25 mg/kg/injection, schedule: Q01DX001 (ip), vehicle: water): 89 % of control
- T/C (endpoint: mean survival time, dose: 6.25 mg/kg/injection, schedule: Q04DX003 (ip), vehicle: water): 98 % of control
- T/C (endpoint: mean survival time, dose: 12.5 mg/kg/injection, schedule: Q01DX001 (ip), vehicle: water): 94 % of control
- T/C (endpoint: mean survival time, dose: 12.5 mg/kg/injection, schedule: Q04DX003 (ip), vehicle: water): 89 % of control
- T/C (endpoint: mean survival time, dose: 25.0 mg/kg/injection, schedule: Q01DX001 (ip), vehicle: water): 101 % of control

Compound: CC1CN(c2ccccc2)NC1=O (stereo not drawn)
- T/C [9]: 104 % of control
- T/C (endpoint: mean survival time, dose: 200.0 mg/kg/injection, schedule: Q01DX009 (ip), vehicle: saline): 105 % of control
- T/C (endpoint: mean survival time, dose: 400.0 mg/kg/injection, schedule: Q01DX009 (ip), vehicle: saline): 102 % of control

Compound: OC1CCCCC(O)CCCC1 (stereo not drawn)
- T/C (endpoint: mean survival time, dose: 100.0 mg/kg/injection, schedule: Q01DX001 (ip), vehicle: saline with Tween-80): 110 % of control
- T/C [10]: 95 % of control
- T/C (endpoint: mean survival time, dose: 200.0 mg/kg/injection, schedule: Q01DX001 (ip), vehicle: saline with Tween-80): 116 % of control
- T/C [11]: 98 % of control
- T/C (endpoint: mean survival time, dose: 400.0 mg/kg/injection, schedule: Q01DX001 (ip), vehicle: saline with Tween-80): 118 % of control
- T/C [12]: 101 % of control

Compound: CN(CC(=O)O)C(=O)c1cc2ccccc2[nH]1
- T/C (endpoint: mean survival time, dose: 37.5 mg/kg/injection, schedule: Q04DX002 (ip), vehicle: saline with Tween-80): 101 % of control
- T/C (endpoint: mean survival time, dose: 75.0 mg/kg/injection, schedule: Q04DX002 (ip), vehicle: saline with Tween-80): 89 % of control
- T/C (endpoint: mean survival time, dose: 150.0 mg/kg/injection, schedule: Q04DX002 (ip), vehicle: saline with Tween-80): 93 % of control

Compound: CC(C)N(Cl)S(C)(=O)=O
- T/C (endpoint: mean survival time, dose: 25.0 mg/kg/injection, schedule: Q04DX003 (ip), vehicle: saline with Tween-80): 97 % of control
- T/C (endpoint: mean survival time, dose: 50.0 mg/kg/injection, schedule: Q04DX003 (ip), vehicle: saline with Tween-80): 93 % of control
- T/C [13]: 95 % of control

Compound: CCCCCC(=O)NCC(=O)N1CCCC1C(=O)NCCCCC(=O)OC (stereo not drawn) (Hexanoyl-Gly-[ξP]-[Ava]-OMe)
- T/C [14]: 98 % of control
- T/C (endpoint: mean survival time, dose: 200.0 mg/kg/injection, schedule: Q04DX003 (ip), vehicle: saline): 107 % of control
- T/C (endpoint: mean survival time, dose: 400.0 mg/kg/injection, schedule: Q04DX003 (ip), vehicle: saline): 103 % of control

Compound: CCCCC(c1ccccc1)P(=O)(OCC)OCC (stereo not drawn)
- T/C (endpoint: mean survival time, dose: 25.0 mg/kg/injection, schedule: Q01DX009 (ip), vehicle: saline with Tween-80): 97 % of control
- T/C [15]: 103 % of control
- T/C [16]: 102 % of control and 111 % of control

Compound: Oc1ccc(C(c2ccc(O)cc2)C(Cl)(Cl)Cl)cc1
- T/C [3]: 101 % of control
- T/C [4]: 101 % of control
- T/C [5]: 93 % of control

Compound: CN(C)/C=N\c1ncnc2c1ncn2C1OC(CO)C2OC(C)(C)OC21 (stereo not drawn)
- T/C [10]: 109 % of control
- T/C [11]: 109 % of control
- T/C [12]: 114 % of control

Compound: Nc1ccc(N=Nc2ccc(S(=O)(=O)O)cc2)cc1
- T/C [13]: 97 % of control
- T/C [17]: 93 % of control
- T/C [18]: 97 % of control

Compound: Cc1cc(NC(=O)c2ccc(Cl)cc2)ccc1Cl
- T/C [13]: 97 % of control
- T/C [17]: 97 % of control
- T/C [18]: 106 % of control

Compound: Cc1ccc(CNc2ccc(C)c(Cl)c2)cc1
- T/C [6]: 101 % of control
- T/C [7]: 97 % of control
- T/C [8]: 96 % of control

Compound: CCN(CC)Cc1ccccn1
- T/C (endpoint: mean survival time, dose: 25.0 mg/kg/injection, schedule: Q01DX009 (ip), vehicle: saline): 94 % of control
- T/C (endpoint: mean survival time, dose: 50.0 mg/kg/injection, schedule: Q01DX009 (ip), vehicle: saline): 97 % of control
- T/C [9]: 92 % of control
- T/C [14]: 95 % of control

Compound: Fc1ccc2ccnnc2c1
- T/C (endpoint: mean survival time, dose: 100.0 mg/kg/injection, schedule: Q01DX001 (ip), vehicle: other): 103 % of control
- T/C (endpoint: mean survival time, dose: 200.0 mg/kg/injection, schedule: Q01DX001 (ip), vehicle: other): 95 % of control

Compound: O=Cc1c2ccc(Cl)cc2nc2cc(Cl)ccc12
- T/C [13]: 112 % of control
- T/C [17]: 93 % of control
- T/C [18]: 102 % of control

Compound: C#CC(=O)OCC#CCOC(=O)C#C
- T/C (endpoint: mean survival time, dose: 0.75 mg/kg/injection, schedule: Q01DX009 (ip), vehicle: saline with Tween-80): 98 % of control
- T/C (endpoint: mean survival time, dose: 1.5 mg/kg/injection, schedule: Q01DX009 (ip), vehicle: saline with Tween-80): 100 % of control
- T/C (endpoint: mean survival time, dose: 3.0 mg/kg/injection, schedule: Q01DX009 (ip), vehicle: saline with Tween-80): 98 % of control
- T/C (endpoint: mean survival time, dose: 6.0 mg/kg/injection, schedule: Q01DX009 (ip), vehicle: saline with Tween-80): 98 % of control
- T/C (endpoint: mean survival time, dose: 12.0 mg/kg/injection, schedule: Q01DX009 (ip), vehicle: saline with Tween-80): 90 % of control

Compound: [N-]=[N+]=NCCCCCCCCCCN=[N+]=[N-]
- T/C (endpoint: mean survival time, dose: 75.0 mg/kg/injection, schedule: Q01DX001 (ip), vehicle: saline): 98 % of control
- T/C (endpoint: mean survival time, dose: 150.0 mg/kg/injection, schedule: Q01DX001 (ip), vehicle: saline): 101 % of control
- T/C (endpoint: mean survival time, dose: 300.0 mg/kg/injection, schedule: Q01DX001 (ip), vehicle: saline): 98 % of control

Compound: Cc1cc2oc(=O)cc(N3CCOCC3)c2c(=O)o1
- T/C [13]: 110 % of control
- T/C [17]: 109 % of control

Compound: CC1(C)OCCCO1
- T/C (endpoint: mean survival time, dose: 25.0 mg/kg/injection, schedule: Q04DX002 (ip), vehicle: saline): 104 % of control
- T/C (endpoint: mean survival time, dose: 50.0 mg/kg/injection, schedule: Q04DX002 (ip), vehicle: saline): 96 % of control
- T/C [1]: 100 % of control

Compound: O=C1CSc2nc3ccccc3n21
- T/C (endpoint: mean survival time, dose: 100.0 mg/kg/injection, schedule: Q01DX009 (ip), vehicle: other): 98 % of control
- T/C (endpoint: mean survival time, dose: 200.0 mg/kg/injection, schedule: Q01DX009 (ip), vehicle: other): 98 % of control
- T/C (endpoint: mean survival time, dose: 400.0 mg/kg/injection, schedule: Q01DX009 (ip), vehicle: other): 105 % of control

Compound: COc1cc(OC)c(NC(=O)OCCON2CCNC2=O)cc1Cl
- T/C [15]: 90 % of control
- T/C [16]: 90 % of control
- T/C [19]: 97 % of control

Compound: CCOC(=O)CCCc1ccccc1
- T/C [16]: 93 % of control
- T/C [19]: 95 % of control
- T/C (endpoint: mean survival time, dose: 400.0 mg/kg/injection, schedule: Q01DX009 (ip), vehicle: saline with Tween-80): 102 % of control
